According to patent US20240116921A1, “LACTAM (HETERO)[…] DERIVATIVES AS INHIBITORS OF ERBB2” (EnLiven Therapeutics, Inc., priority 2020, published 2024):

Legend:
[1] = molecular target: T1, phosphorylated ERBB2 (pERBB2) (Homo sapiens, UniProt P04626); assay: Detection of phosphorylated ERBB2 (pERBB2) by ELISA in BT-474 cells; format: cell-based; details: four hours incubation
T1 construct: endogenous in cells; host or cells: BT-474
Summary of the method: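 Phospho-ERBB2 in lysates was quantified by sandwich ELISA (A450, TMB) after 4 h compound exposure at 37 °C of BT-474 cells seeded at 2.0×10^4 per well. Compounds tested at 10 µM to 0.01 nM final in four-fold steps; activity normalized to DMSO (0.1%) high and cell-free low controls.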

[2] = molecular target: T2, phosphorylated EGFR (pEGFR) (Homo sapiens, UniProt P00533); assay: Detection of phosphorylated EGFR (pEGFR) in EGF-stimulated A431 cells; format: cell-based; details: A431 cells (10% FBS), 4 hours incubation, EGF 30 ng/mL 10 minutes, AlphaLISA
T2 construct: performed to measure phosphorylated EGFR levels using A431 cells (10% FBS); endogenous in cells; host or cells: A431
T2 sequence (P00533 25-1210): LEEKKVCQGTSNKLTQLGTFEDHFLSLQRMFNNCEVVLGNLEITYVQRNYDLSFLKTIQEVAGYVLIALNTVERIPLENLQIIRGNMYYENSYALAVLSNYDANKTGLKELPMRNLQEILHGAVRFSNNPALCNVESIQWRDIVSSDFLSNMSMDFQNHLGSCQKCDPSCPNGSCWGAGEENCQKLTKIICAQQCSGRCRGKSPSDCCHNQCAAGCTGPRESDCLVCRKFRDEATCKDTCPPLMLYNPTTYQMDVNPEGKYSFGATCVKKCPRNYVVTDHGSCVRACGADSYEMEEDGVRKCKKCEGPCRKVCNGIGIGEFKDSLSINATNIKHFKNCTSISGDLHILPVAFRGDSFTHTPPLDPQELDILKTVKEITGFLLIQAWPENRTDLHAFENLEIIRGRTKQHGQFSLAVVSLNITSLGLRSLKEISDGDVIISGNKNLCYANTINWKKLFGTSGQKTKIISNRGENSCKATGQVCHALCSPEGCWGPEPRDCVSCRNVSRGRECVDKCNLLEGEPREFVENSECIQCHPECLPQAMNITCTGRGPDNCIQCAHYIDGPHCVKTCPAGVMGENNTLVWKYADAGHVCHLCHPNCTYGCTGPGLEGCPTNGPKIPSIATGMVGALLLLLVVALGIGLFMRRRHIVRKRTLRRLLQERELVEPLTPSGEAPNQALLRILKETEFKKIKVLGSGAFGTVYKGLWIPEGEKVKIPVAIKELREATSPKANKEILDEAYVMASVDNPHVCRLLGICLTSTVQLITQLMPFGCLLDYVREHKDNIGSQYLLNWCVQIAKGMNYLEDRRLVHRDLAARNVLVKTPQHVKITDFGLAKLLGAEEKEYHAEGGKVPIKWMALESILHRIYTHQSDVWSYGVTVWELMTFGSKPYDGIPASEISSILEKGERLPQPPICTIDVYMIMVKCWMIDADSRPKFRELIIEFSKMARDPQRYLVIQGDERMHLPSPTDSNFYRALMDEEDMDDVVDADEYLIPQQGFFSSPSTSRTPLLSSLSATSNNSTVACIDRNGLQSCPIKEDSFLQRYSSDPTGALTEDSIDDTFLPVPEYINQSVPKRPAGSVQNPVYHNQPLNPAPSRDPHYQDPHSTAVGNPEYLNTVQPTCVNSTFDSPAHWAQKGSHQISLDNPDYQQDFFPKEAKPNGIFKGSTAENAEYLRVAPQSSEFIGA
Summary of the method: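 AlphaLISA read-out of EGFR phosphorylation after a 10-min EGF pulse (30 ng/mL final). A431 cells (10% FBS) had been exposed to compound for 4 h at 37 °C. IC50 was fitted from % inhibition normalised to DMSO and staurosporine control lysates.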

[3] = molecular target: Ba/F3 ERBB2 A775_G776insYVMA (Homo sapiens, UniProt P04626, DUP772-775, cells depend on it); assay: Cell viability assay, Ba/F3 ERBB2 A775_G776insYVMA; format: cell-based, mouse; details: Ba/F3 ERBB2 YVMA cells, cell viability, 72 hours, CellTiter Glo; Table B5; read-out: Ba/F3 ERBB2 YVMA, IC50
Sequence of Ba/F3 ERBB2 A775_G776insYVMA (P04626 with tags, fused parts or gaps DUP772-775): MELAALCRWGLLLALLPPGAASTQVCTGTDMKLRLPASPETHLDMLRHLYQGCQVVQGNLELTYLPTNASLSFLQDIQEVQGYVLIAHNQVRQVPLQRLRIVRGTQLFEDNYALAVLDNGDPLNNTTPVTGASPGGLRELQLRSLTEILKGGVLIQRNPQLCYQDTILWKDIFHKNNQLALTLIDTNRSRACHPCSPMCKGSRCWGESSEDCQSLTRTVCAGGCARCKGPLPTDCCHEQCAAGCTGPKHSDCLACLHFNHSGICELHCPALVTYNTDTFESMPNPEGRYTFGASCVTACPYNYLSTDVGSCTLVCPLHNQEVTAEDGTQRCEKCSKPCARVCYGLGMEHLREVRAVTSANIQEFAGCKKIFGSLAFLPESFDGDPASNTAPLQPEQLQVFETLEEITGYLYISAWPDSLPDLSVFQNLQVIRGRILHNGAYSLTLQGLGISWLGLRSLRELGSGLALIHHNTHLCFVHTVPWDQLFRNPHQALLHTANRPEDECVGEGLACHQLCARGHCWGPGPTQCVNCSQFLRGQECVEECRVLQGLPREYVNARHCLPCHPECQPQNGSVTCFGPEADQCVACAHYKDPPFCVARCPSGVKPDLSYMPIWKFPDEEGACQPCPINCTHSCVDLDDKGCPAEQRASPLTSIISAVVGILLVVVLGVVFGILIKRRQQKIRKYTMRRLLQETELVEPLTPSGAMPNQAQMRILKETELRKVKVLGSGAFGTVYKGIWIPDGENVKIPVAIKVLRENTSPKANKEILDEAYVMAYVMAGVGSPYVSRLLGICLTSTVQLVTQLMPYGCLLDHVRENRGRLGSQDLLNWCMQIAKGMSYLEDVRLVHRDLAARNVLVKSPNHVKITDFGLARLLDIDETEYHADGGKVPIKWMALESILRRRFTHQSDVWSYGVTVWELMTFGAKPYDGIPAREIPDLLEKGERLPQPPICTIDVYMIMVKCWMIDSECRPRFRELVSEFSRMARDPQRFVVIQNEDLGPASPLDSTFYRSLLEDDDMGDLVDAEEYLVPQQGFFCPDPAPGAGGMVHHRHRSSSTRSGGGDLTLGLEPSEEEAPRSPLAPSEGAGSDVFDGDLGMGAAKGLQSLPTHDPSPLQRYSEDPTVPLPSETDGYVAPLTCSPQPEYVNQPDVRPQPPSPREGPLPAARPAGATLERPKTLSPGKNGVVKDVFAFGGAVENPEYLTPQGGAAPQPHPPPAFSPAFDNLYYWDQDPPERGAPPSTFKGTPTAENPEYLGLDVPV
Summary of the method: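 Viability after 72 h compound treatment (37 °C, 5% CO2) was quantified by CellTiter-Glo luminescence of intracellular ATP, with sigmoidal dose-response fitting. Cells were retrovirally engineered Ba/F3 lines whose growth depends on the mutant human ERBB2 in place of IL-3, plated at 3000 per well.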

T1 sequence (P04626 23-1255): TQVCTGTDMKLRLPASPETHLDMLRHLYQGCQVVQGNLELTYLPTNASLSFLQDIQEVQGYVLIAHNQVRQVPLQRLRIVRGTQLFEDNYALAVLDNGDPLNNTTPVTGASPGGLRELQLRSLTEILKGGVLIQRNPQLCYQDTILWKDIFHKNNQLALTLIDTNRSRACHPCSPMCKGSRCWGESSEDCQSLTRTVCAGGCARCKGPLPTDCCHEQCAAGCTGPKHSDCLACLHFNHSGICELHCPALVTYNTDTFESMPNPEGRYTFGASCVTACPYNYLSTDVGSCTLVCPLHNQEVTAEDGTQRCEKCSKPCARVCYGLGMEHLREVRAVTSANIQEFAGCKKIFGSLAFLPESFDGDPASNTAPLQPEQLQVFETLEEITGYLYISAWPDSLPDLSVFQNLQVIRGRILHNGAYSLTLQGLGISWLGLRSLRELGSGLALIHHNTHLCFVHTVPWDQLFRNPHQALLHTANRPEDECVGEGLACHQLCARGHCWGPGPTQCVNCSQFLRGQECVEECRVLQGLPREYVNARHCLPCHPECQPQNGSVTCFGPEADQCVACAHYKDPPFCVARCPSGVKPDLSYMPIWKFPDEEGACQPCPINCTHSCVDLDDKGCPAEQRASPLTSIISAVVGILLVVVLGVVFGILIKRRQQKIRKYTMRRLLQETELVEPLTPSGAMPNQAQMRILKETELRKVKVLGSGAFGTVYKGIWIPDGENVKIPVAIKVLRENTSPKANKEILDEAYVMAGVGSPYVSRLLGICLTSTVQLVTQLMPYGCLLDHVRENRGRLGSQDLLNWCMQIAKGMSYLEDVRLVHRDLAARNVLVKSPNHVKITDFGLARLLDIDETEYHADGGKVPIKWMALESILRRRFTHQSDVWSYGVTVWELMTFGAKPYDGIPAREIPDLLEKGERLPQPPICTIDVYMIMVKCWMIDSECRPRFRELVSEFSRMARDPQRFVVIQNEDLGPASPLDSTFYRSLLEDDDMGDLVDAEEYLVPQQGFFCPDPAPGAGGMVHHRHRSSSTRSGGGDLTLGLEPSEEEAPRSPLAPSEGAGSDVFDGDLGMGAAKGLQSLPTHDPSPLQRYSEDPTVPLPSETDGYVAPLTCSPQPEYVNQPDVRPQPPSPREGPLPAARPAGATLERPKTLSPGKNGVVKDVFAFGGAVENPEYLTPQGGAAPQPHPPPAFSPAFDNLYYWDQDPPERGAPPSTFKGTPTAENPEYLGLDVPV

SMILES | IC50 [1] [nM] | IC50 [2] [nM] | GI50 [3] [nM]
[2H]C([2H])([2H])N(C/C=C1\CCN(c2ccc3ncnc(Nc4ccc(Oc5ccc6c(c5)ncn6C([2H])([2H])[2H])c(C)c4)c3n2)C1=O)C([2H])([2H])[2H] [Compound 106, (E)-3-(2-(bis(methyl-d3)amino)ethylidene)-1-(4-((3-methyl-4-((1-(methyl-d3)-1H-benzo[d]imidazol-5-yl)oxy)phenyl)amino)pyrido[3,2-d]pyrimidin-6-yl)pyrrolidin-2-one] | 28.2 | 1690 | 2.99
Cc1cc(Nc2ncnc3cnc(N4CC/C(=C\CN(C)C)C4=O)cc23)ccc1Oc1ccn2nnnc2c1 [Compound 107, (3E)-3-[2-(dimethylamino)ethylidene]-1-{4-[(3-methyl-4-{[1,2,3,4]tetrazolo[1,5-a]pyridin-7-yloxy}phenyl)amino]pyrido[3,4-d]pyrimidin-6-yl}pyrrolidin-2-one] | 21.6 | > 10000 | 81.3
Cc1cc(Nc2ncnc3ccc(N4CC/C(=C\CN(C)C)C4=O)nc23)ccc1Oc1ccn2nnnc2c1 [Compound 108, (3E)-3-[2-(dimethylamino)ethylidene]-1-{4-[(3-methyl-4-{[1,2,3,4]tetrazolo[1,5-a]pyridin-7-yloxy}phenyl)amino]pyrido[3,2-d]pyrimidin-6-yl}pyrrolidin-2-one] | 13.2 | 3410 | 11.1
Cc1cc(Nc2ncnc3ccc(N4CC/C(=C\[C@H](C)N(C)C)C4=O)nc23)ccc1Oc1ccn2ncnc2c1 [Compound 113, (S,E)-1-(4-((4-([1,2,4]triazolo[1,5-a]pyridin-7-yloxy)-3-methylphenyl)amino)pyrido[3,2-d]pyrimidin-6-yl)-3-(2-(dimethylamino)propylidene)pyrrolidin-2-one] | 327 | > 10000 | > 500
Cc1cc(Nc2ncnc3ccc(N4CC/C(=C\[C@@H](C)N(C)C)C4=O)nc23)ccc1Oc1ccn2ncnc2c1 [Compound 114, (R,E)-1-(4-((4-([1,2,4]triazolo[1,5-a]pyridin-7-yloxy)-3-methylphenyl)amino)pyrido[3,2-d]pyrimidin-6-yl)-3-(2-(dimethylamino)propylidene)pyrrolidin-2-one] | 31.1 | > 10000 | 24.3
[2H]C([2H])([2H])n1nnc2cc(Oc3ccc(Nc4ncnc5ccc(N6CC/C(=C\CN(C)C)C6=O)nc45)cc3C)ccc21 [Compound 117, (E)-3-(2-(dimethylamino)ethylidene)-1-(4-((3-methyl-4-((1-(methyl-d3)-1H-benzo[d][1,2,3]triazol-5-yl)oxy)phenyl)amino)pyrido[3,2-d]pyrimidin-6-yl)pyrrolidin-2-one] | 19.2 | > 10000 | 2
Cc1cc(Nc2ncnc3ccc(N4CC/C(=C\CN(C)C)C4=O)nc23)ccc1Oc1ccc2[nH]cnc2c1 [Compound 118, (3E)-1-(4-{[4-(1H-1,3-benzodiazol-5-yloxy)-3-methylphenyl]amino}pyrido[3,2-d]pyrimidin-6-yl)-3-[2-(dimethylamino)ethylidene]pyrrolidin-2-one] | 10.3 | 177 | 1.55
[2H]C([2H])([2H])n1cnc2cc(Oc3ccc(Nc4ncnc5ccc(N6CC/C(=C\CN(C)C)C6=O)nc45)cc3C)ccc21 [Compound 119, (E)-3-(2-(dimethylamino)ethylidene)-1-(4-((3-methyl-4-((1-(methyl-d3)-1H-benzo[d]imidazol-5-yl)oxy)phenyl)amino)pyrido[3,2-d]pyrimidin-6-yl)pyrrolidin-2-one] | 15.4 | 521 | 1.18
Cc1cc(Nc2c(C#N)cnc3ccc(N4CC/C(=C\CN(C)C)C4=O)nc23)ccc1Oc1ccc2c(c1)ncn2C [Compound 124, 6-[(3E)-3-[2-(dimethylamino)ethylidene]-2-oxopyrrolidin-1-yl]-4-({3-methyl-4-[(1-methyl-1,3-benzodiazol-5-yl)oxy]phenyl}amino)-1,5-naphthyridine-3-carbonitrile] | 163 | > 10000 | 34.2
CN(C)C/C=C1\CCN(c2cc3c(Nc4ccc(Oc5cccnc5)c(F)c4)ncnc3cn2)C1=O [Compound 125, (3E)-3-[2-(dimethylamino)ethylidene]-1-(4-{[3-fluoro-4-(pyridin-3-yloxy)phenyl]amino}pyrido[3,4-d]pyrimidin-6-yl)pyrrolidin-2-one] | 42.8 | 1140 | 56
CN(C)C/C=C1\CCN(c2ccc3ncnc(Nc4ccc(Oc5cccnc5)c(F)c4)c3n2)C1=O [Compound 126, (3E)-3-[2-(dimethylamino)ethylidene]-1-(4-{[3-fluoro-4-(pyridin-3-yloxy)phenyl]amino}pyrido[3,2-d]pyrimidin-6-yl)pyrrolidin-2-one] | 99.1 | 1110 | 34
C=C1CCCN(c2cc3c(Nc4ccc(Oc5ccc6c(c5)ncn6C)c(C)c4)ncnc3cn2)C1=O [Compound 127, 1-[4-({3-methyl-4-[(1-methyl-1,3-benzodiazol-5-yl)oxy]phenyl}amino)pyrido[3,4-d]pyrimidin-6-yl]-3-methylidenepiperidin-2-one] | 27 | 1200 | 24.3
CN(C)C/C=C1\CCN(c2cc3c(Nc4ccc(Oc5ccc6c(c5)ncn6C)c(F)c4)ncnc3cn2)C1=O [Compound 128, (3E)-3-[2-(dimethylamino)ethylidene]-1-[4-({3-fluoro-4-[(1-methyl-1,3-benzodiazol-5-yl)oxy]phenyl}amino)pyrido[3,4-d]pyrimidin-6-yl]pyrrolidin-2-one] | 21.4 | > 10000 | 7.9
CN(C)C/C=C1\CCN(c2cc3c(Nc4ccc(Oc5ccn6ncnc6c5)c(F)c4)ncnc3cn2)C1=O [Compound 129, (3E)-3-[2-(dimethylamino)ethylidene]-1-{4-[(3-fluoro-4-{[1,2,4]triazolo[1,5-a]pyridin-7-yloxy}phenyl)amino]pyrido[3,4-d]pyrimidin-6-yl}pyrrolidin-2-one] | 11.9 | 2320 | 19.3
Cc1cc(Nc2ncnc3ccc(N4CC/C(=C\CN(C)C)C4=O)nc23)ccc1Oc1cncc(F)c1 [Compound 130, (3E)-3-[2-(dimethylamino)ethylidene]-1-[4-({4-[(5-fluoropyridin-3-yl)oxy]-3-methylphenyl}amino)pyrido[3,2-d]pyrimidin-6-yl]pyrrolidin-2-one] | 40.6 | 187 | 17.8
CN(C)C/C=C1\CCN(c2cc3c(Nc4cc(Cl)c(Oc5ccn6ncnc6c5)cc4F)ncnc3cn2)C1=O [Compound 133, (E)-1-(4-((4-([1,2,4]triazolo[1,5-a]pyridin-7-yloxy)-5-chloro-2-fluorophenyl)amino)pyrido[3,4-d]pyrimidin-6-yl)-3-(2-(dimethylamino)ethylidene)pyrrolidin-2-one] | 10.9 | 1140 | 16.9
Cc1cc(Nc2ncnc3cnc(N4CC/C(=C\C5CN(C)C5)C4=O)cc23)c(F)cc1Oc1ccn2ncnc2c1 [Compound 138, (3E)-1-{4-[(2-fluoro-5-methyl-4-{[1,2,4]triazolo[1,5-a]pyridin-7-yloxy}phenyl)amino]pyrido[3,4-d]pyrimidin-6-yl}-3-[(1-methylazetidin-3-yl)methylidene]pyrrolidin-2-one] | 16.8 | > 10000 | 99.6
Cc1cc(Nc2ncnc3ccc(N4CC/C(=C\C5CN(C)C5)C4=O)nc23)ccc1Oc1ccn2ncnc2c1 [Compound 139, (3E)-1-{4-[(3-methyl-4-{[1,2,4]triazolo[1,5-a]pyridin-7-yloxy}phenyl)amino]pyrido[3,2-d]pyrimidin-6-yl}-3-[(1-methylazetidin-3-yl)methylidene]pyrrolidin-2-one] | 14.3 | > 10000 | 15.7
CN(C)C/C=C1\CCN(c2cc3c(Nc4cc(F)c(Oc5ccn6ncnc6c5)cc4F)ncnc3cn2)C1=O [Compound 140, (3E)-1-{4-[(2,5-difluoro-4-{[1,2,4]triazolo[1,5-a]pyridin-7-yloxy}phenyl)amino]pyrido[3,4-d]pyrimidin-6-yl}-3-[2-(dimethylamino)ethylidene]pyrrolidin-2-one] | 20.5 | > 10000 | 78.1
CN(C)C/C=C1\CCN(c2ccc3ncnc(Nc4cc(F)c(Oc5ccn6ncnc6c5)cc4F)c3n2)C1=O [Compound 141, (E)-1-(4-((4-([1,2,4]triazolo[1,5-a]pyridin-7-yloxy)-2,5-difluorophenyl)amino)pyrido[3,2-d]pyrimidin-6-yl)-3-(2-(dimethylamino)ethylidene)pyrrolidin-2-one] | 23.8 | > 10000 | 28.5
Cc1cc(Nc2ncnc3ccc(N4C(=O)/C(=C\CN(C)C)C5CC54)nc23)ccc1Oc1ccn2ncnc2c1 (stereo not drawn) [Compound 142, (4Z)-4-[2-(dimethylamino)ethylidene]-2-{4-[(3-methyl-4-{[1,2,4]triazolo[1,5-a]pyridin-7-yloxy}phenyl)amino]pyrido[3,2-d]pyrimidin-6-yl}-2-azabicyclo[3.1.0]hexan-3-one] | 15.4 | 543 | 5.8
